# From paper PMC12526004, “Tiliroside Suppresses Uric Acid Production in Hepatocytes and Attenuates Purine-Induced Hyperuricemia in Male ICR Mice” (Molecules, 2025)
# What was measured:
# [1] = tested on: mice with purine-induced hyperuricemia; assay: Hepatic UA level in hyperuricemic model mice; assay type: in vivo, male ICR mice; conditions: three days; for Hepatic UA Level: mean ± SEM
# Method: (§1) The antihyperuricemic effect of tiliroside was evaluated using mice with purine-induced hyperuricemia, following a previously described procedure. […] The test compounds were suspended in 0.2 mL of 0.5% CMC-Na based on the average body weight of each group. The actual volume administered was adjusted according to the individual body weight of each mouse. Prior to each administration, the mice were fasted for four hours. The negative and hyperuricemic control groups received the vehicle (0.5% CMC-Na) alone. […] GMP and IMP were dissolved in 0.2 mL of PBS (–) based on the average body weight of all mice. The injection volume was similarly adjusted according to each mouse’s body weight. These injections were performed one hour after the final oral administration of the test compounds or vehicle. The negative control group received PBS (–) alone. […] The liver and kidneys were then excised. Blood samples were centrifuged at 5000× g for 10 min at 4 °C to obtain plasma, which was stored at −80 °C until analysis. Liver samples preparation was performed according to the methods previously described. Each portion of the liver tissue was processed for a specific analysis. One portion was homogenized in ice-cold 100 mM Tris-HCl buffer (pH 7.5), followed by sonication and centrifugation at 10,000× g for 5 min at 4 °C. The resulting supernatant was collected for the determination of UA levels. Another portion was treated similarly using Tris-HCl buffer containing 1 mM EDTA-2Na, and the supernatant was used to measure XO activity. The final portion was homogenized in ice-cold RIPA lysis buffer (Nacalai Tesque) and centrifuged under the same conditions, and the resulting supernatant was used for Western blot analysis. UA concentrations in plasma and liver homogenates were determined using the uricase-based Uric Acid C-Test Wako. Protein concentrations in the liver samples were measured with the Pierce™ BCA Protein Assay Kit. Liver UA levels were expressed as milligrams per gram of liver protein (mg/g protein).
# [2] = tested on: mice with purine-induced hyperuricemia; assay: Plasma UA in mice with purine-induced hyperuricemia; assay type: in vivo, male ICR mice; conditions: three days; for effect on plasma UA increase / effect on plasma UA levels: vs hyperuricemic control
# Method: as §1, with “analysis.” for “analysis. Liver samples preparation was performed according to the methods previously described. Each portion of the liver tissue was processed for a specific analysis. One portion was homogenized in ice-cold 100 mM Tris-HCl buffer (pH 7.5), followed by sonication and centrifugation at 10,000× g for 5 min at 4 °C. The resulting supernatant was collected for the determination of UA levels. Another portion was treated similarly using Tris-HCl buffer containing 1 mM EDTA-2Na, and the supernatant was used to measure XO activity. The final portion was homogenized in ice-cold RIPA lysis buffer (Nacalai Tesque) and centrifuged under the same conditions, and the resulting supernatant was used for Western blot analysis.”
# NPT4 = assay: Renal mRNA expression, real-time quantitative PCR; assay type: in vivo, male ICR mice; conditions: three days
# Method: The antihyperuricemic effect of tiliroside was evaluated using mice with purine-induced hyperuricemia, following a previously described procedure. […] The test compounds were suspended in 0.2 mL of 0.5% CMC-Na based on the average body weight of each group. The actual volume administered was adjusted according to the individual body weight of each mouse. Prior to each administration, the mice were fasted for four hours. The negative and hyperuricemic control groups received the vehicle (0.5% CMC-Na) alone. […] GMP and IMP were dissolved in 0.2 mL of PBS (–) based on the average body weight of all mice. The injection volume was similarly adjusted according to each mouse’s body weight. These injections were performed one hour after the final oral administration of the test compounds or vehicle. The negative control group received PBS (–) alone. […] The liver and kidneys were then excised. Blood samples were centrifuged at 5000× g for 10 min at 4 °C to obtain plasma, which was stored at −80 °C until analysis. To assess renal gene expression, four mice per group were selected based on plasma UA levels approximating the group mean. Total RNA was extracted from kidney tissues of the negative control, hyperuricemic model, allopurinol-treated, and high-dose tiliroside-treated groups using the Trizol-chloroform method (Thermo Fisher Scientific). Reverse transcription was performed with 1 µg of RNA using iScript reverse transcriptase (Bio-Rad, Hercules, CA, USA). Quantitative PCR was conducted using the MyiQ2 real-time PCR system (Bio-Rad), with GAPDH as the reference gene.
# AML12 hepatocytes = assay: UA production by AML12 cells stimulated with UA precursors; assay type: cell-based; conditions: for maximum reduction of UA production: guanosine + inosine (GI mixture) 100 µM each, 2 h, vs control (0 µM); for UA production: UA precursor xanthine
# Method: AML12 hepatocytes used in this study were acquired from ATCC (CRL-2254), Manassas, VA, USA. AML12 cells were maintained in DMEM/F-12 (Life Technologies, Grand Island, NY, USA) supplemented with 10% (v/v) fetal bovine serum (FBS; Hyclone, Logan, UT, USA), recombinant human insulin (5 µg/mL), human transferrin (5 µg/mL), and dexamethasone (40 ng/mL), each obtained from FUJIFILM Wako, as well as selenium (3 ng/mL, Sigma-Aldrich) and penicillin–streptomycin mixed solution (100 U/mL penicillin and 100 µg/mL streptomycin, Nacalai Tesque), under a humidified atmosphere of 5% CO2 at 37 °C. Culture of AML12 hepatocytes and measurement of UA production were conducted following a previously reported protocol.Cells were seeded at a density of 1.0 × 10^5 cells per well in 24-well plates and cultured for 72 h in complete medium, followed by 24 h in serum-free DMEM/F-12. After serum deprivation, cells were rinsed once with calcium- and magnesium-free phosphate-buffered saline [PBS (–)] and incubated in 200 µL of balanced salt solution (BSS) containing […], 5 mM KCl, 1 mM MgCl2, 0.8 mM CaCl2, 25 mM NaHCO3, 1 mM NaH2PO4, 10 mM HEPES, and 5 mM glucose. […] The final concentration of DMSO in all samples was adjusted to 0.15%. After a 2-h incubation, 200 µL of the reaction mixture was collected for UA quantification. The UA concentration in BSS was used as an indicator of UA production. Subsequently, cells were washed with PBS (–) and lysed in 300 µL of buffer containing 50 mM Tris and 1 mM sodium phosphate (pH 7.5). Lysates were sonicated and centrifuged (12,000× g, 5 min, 4 °C), and the supernatants were used for protein quantification using the Pierce™ BCA Protein Assay Kit (Thermo Fisher Scientific Inc., Waltham, MA, USA). UA levels were measured using the uricase-based Uric Acid C-Test Wako (FUJIFILM Wako). UA production was expressed as nanomoles per 2 h per milligram of cellular protein (nmol/2 h/mg protein).
# [3] = 300 mg/kg oral, hyperuricemic mice
compound,measurement,setting,value
"Oc1ncnc2[nH]ncc12 [Allopurinol, allopurinol, reference compound]",Hepatic UA Level,[1]; 10 mg/kg body weight oral,0.60 ± 0.03 mg/g Protein
same,effect on plasma UA increase,[2]; 10 mg/kg body weight oral,significantly reduced
same,renal NPT4 mRNA expression,NPT4; 10 mg/kg oral,no significant differences
same,maximum reduction of UA production,AML12 hepatocytes; 1 µM,approximately 94.6%
"O=C(/C=C/c1ccc(O)cc1)OC[C@H]1O[C@@H](Oc2c(-c3ccc(O)cc3)oc3cc(O)cc(O)c3c2=O)[C@H](O)[C@@H](O)[C@@H]1O [Tiliroside, kaempferol-3-O-(6′′-p-coumaroyl)-glucoside]",Hepatic UA Level,[1]; 50 mg/kg oral,1.30 ± 0.16 mg/g Protein
same,Hepatic UA Level,[1]; 100 mg/kg oral,1.13 ± 0.16 mg/g Protein
same,lowering of hepatic UA level,[1]; [3],~55%
same,Hepatic UA Level,[1]; 300 mg/kg oral,0.79 ± 0.11 mg/g Protein
same,effect on plasma UA levels,[2]; 50 mg/kg body weight oral,failed to produce a statistically significant reduction
same,effect on plasma UA levels,[2]; 100 mg/kg body weight oral,failed to produce a statistically significant reduction
same,effect on plasma UA increase,[2]; 300 mg/kg body weight oral,significantly reduced
same,lowering of plasma UA level,[2]; [3],approximately 30%
same,renal NPT4 mRNA expression,NPT4; 300 mg/kg oral,no significant differences
same,UA production,AML12 hepatocytes; 10 µM,82.7 ± 2.4 nmol/2 h/mg protein
same,UA production,AML12 hepatocytes; 30 µM,45.4 ± 1.8 nmol/2 h/mg protein
same,UA production,AML12 hepatocytes; 100 µM,28.0 ± 1.2 nmol/2 h/mg protein
same,maximum reduction of UA production,AML12 hepatocytes; 100 µM,approximately 86.6%
